Source: PMC3101337, “Interactions of the Melanocortin-4 Receptor with the Peptide Agonist NDP-MSH” (Journal of Molecular Biology, 2010)

Biological target: T1, hMC4R mutant L106C (Homo sapiens, UniProt P32245, L106C)
T1 construct: expressed in transfected cells; host or cells: HEK293 CRE-Luciferase cells; mutant made by QuikChange on pcDNA3-MC4R
Test: CRE-Luciferase cAMP activity assay, L106C MC4R
Assay type: cell-based
Conditions: L106C MC4R in HEK293 CRE-Luciferase cells, mean ± SEM, N = 3, NA = no activity, read-out: Ligand pEC50 (converted)
Experimental: Twenty-four hours posttransfection, HEK293 CRE-Luciferase cells were plated onto 96-well black-wall, clear-bottom, poly-D-lysine-coated microplates (Corning Costar) at a density of 50,000 cells/well and cultured for a further 12–18 h. […] Microtiter plates were incubated for 4 h at 37 °C, after which Luclite® reagent (Perkin-Elmer) was added to each well. The plates were sealed and subjected to dark adaptation for 5 min at room temperature. Luciferase activity was determined by scintillation counting using a TOPCount scintillation counter (Perkin-Elmer).
All measurements, except where stated, were carried out in triplicate in three independent experiments. The values quoted and depicted graphically are the means of independent determinations with the standard error of the mean. […] In a similar fashion, EC50 values were calculated from the fit of sigmoidal concentration–response curves (three-parameter fit). pIC50 refers to − log IC50, and pEC50 refers to − log EC50.

T1 sequence (P32245 whole entry L106C): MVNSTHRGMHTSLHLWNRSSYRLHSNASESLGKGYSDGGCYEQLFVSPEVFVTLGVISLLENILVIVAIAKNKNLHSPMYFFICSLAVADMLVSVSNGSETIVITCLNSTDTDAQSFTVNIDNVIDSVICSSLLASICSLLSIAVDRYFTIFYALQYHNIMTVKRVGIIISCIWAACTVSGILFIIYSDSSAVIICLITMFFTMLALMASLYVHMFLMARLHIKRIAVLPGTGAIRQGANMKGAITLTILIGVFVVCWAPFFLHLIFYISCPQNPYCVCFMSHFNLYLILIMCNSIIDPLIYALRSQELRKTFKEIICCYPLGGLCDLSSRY

- EC50: 6.46 nM
Compound: CCCC[C@H](NC(=O)[C@H](CO)NC(=O)[C@H](Cc1ccc(O)cc1)NC(=O)[C@H](CO)NC(=O)CCCC[C@@H]1SC[C@@H]2NC(=O)N[C@@H]21)C(=O)N[C@@H](CCC(=O)O)C(=O)N[C@@H](Cc1c[nH]cn1)C(=O)N[C@H](Cc1ccccc1)C(=O)N[C@@H](CS)C(=O)N[C@@H](Cc1c[nH]c2ccccc12)C(=O)NCC(=O)N[C@@H](CCCCN)C(=O)N1CCC[C@H]1C(=O)N[C@H](C(N)=O)C(C)C [Peptide 8]
